Laboratory results from patent publication US11351178B2, “Selective HDAC6 inhibitors” (ITALFARMACO S.P.A., priority 2017, dated 2022).
pIC50: −log10 of the molar value.

Assays:
[1] = tested on: B 697 promyelocytic cell line; assay: Cytotoxicity on 697 cell line (CellTiter 96); format: cell-based; details: 72 hours incubation, read-out: 697 TOXICITY
Method: (§1) Cytotoxic activity was evaluated on B 697 […] cell line for all synthesized compounds and on peripheral blood mononuclear cells (PBMCs) for compounds showing a good potency/selectivity profile.
(§2) Cells were seeded in plate (2×10^4 cells per well for 697, 5×10^5 cells per well for PBMCs). The test compounds (concentrations from 1.5 nM to 10000 nM for PBMCs and from 1 nM to 10000 nM for 697) were added after 24 hours and incubated 72 hours. The molecules cytotoxic activity was evaluated using CellTiter 96© Aqueous One Solution Cell Proliferation Assay (Promega), which measures the mitochondria function, following the manufacturer's instructions.

[2] = tested on: peripheral blood mononuclear cells (PBMCs); assay: Cytotoxicity on PBMCs (CellTiter 96); format: cell-based; details: PBMC, 72 h; read-out: PBMC TOXICITY (72 h)
Method: as §1, §2

recombinant human HDAC6 = molecular target: T1, recombinant human HDAC6 (Homo sapiens, UniProt Q9UBN7); assay: Enzymatic screening on recombinant human HDAC6; format: biochemical; details: Table 2; read-out: HDAC6 IC50
T1 sequence (Q9UBN7 1-1215): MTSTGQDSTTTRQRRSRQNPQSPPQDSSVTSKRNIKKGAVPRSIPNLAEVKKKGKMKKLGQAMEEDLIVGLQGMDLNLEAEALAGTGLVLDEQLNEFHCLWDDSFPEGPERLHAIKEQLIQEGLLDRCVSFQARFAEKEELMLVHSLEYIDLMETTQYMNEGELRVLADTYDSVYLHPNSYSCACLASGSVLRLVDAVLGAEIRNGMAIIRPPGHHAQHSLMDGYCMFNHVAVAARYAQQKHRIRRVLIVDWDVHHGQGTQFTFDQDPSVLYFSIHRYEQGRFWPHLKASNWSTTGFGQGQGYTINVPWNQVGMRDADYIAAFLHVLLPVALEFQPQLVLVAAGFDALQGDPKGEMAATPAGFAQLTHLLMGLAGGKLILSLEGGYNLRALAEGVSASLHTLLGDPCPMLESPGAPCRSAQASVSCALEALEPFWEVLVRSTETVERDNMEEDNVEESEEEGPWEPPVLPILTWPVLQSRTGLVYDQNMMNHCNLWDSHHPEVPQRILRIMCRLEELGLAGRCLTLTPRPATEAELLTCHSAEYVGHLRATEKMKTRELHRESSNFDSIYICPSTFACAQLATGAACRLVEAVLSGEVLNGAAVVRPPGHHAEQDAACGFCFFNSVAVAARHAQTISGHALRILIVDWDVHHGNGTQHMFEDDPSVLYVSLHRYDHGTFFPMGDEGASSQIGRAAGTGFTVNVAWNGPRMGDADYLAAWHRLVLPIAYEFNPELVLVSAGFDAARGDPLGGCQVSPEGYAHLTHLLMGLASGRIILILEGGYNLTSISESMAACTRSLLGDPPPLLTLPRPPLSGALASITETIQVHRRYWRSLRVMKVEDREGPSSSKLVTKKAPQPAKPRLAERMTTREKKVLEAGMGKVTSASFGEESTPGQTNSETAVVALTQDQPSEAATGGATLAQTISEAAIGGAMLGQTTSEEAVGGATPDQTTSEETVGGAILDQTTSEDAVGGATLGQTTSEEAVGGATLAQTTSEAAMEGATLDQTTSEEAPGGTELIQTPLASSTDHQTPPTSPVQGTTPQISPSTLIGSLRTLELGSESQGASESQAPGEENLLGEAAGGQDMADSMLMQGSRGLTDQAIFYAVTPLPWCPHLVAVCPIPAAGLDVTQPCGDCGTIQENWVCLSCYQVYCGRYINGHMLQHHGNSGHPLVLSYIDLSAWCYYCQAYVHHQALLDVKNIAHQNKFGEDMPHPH
Method in brief: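 Buffer for substrate addition: 25 mM Tris-HCl pH 8, 130 mM NaCl, 0.05% Tween-20, 10% glycerol, substrate 2× concentrated (FdL, FdL-Green or trifluoroacetyl-lysine). Recombinant human HDAC was preincubated with compound at 30 °C beforehand, timing isoform-dependent, and the reaction was likewise run at 30 °C.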

## Cn1c(Sc2ccc(C(=O)NO)cc2)nnc1-c1ccc2c(c1)OCO2 [comp. 84, 4-[[5-(1,3-benzodioxol-5-yl)-4-methyl-1,2,4-triazol-3-yl]sulfanyl]benzenecarbohydroxamic acid]
[1]
  pIC50: 5.28
[2]
  pIC50: 5.35
Recombinant human HDAC6
  pIC50: 7.68

## COC(=O)c1ccc(Cc2nnn(Cc3c(F)cc(C(=O)NO)cc3F)n2)cc1 [comp. 154, methyl 4-[[2-[[2,6-difluoro-4-(hydroxycarbamoyl)phenyl]methyl]tetrazol-5-yl]methyl]benzoate]
[1]
  pIC50: 4.64
[2]
  pIC50: < 5.00
Recombinant human HDAC6
  pIC50: 7.49

## COC(=O)c1ccc(-c2nnn(Cc3ccc(C(=O)NO)cc3)n2)nc1 [comp. 156, methyl 6-[2-[[4-(hydroxycarbamoyl)phenyl]methyl]tetrazol-5-yl]pyridine-3-carboxylate]
[1]
  pIC50: 5.80
[2]
  pIC50: < 5.00
Recombinant human HDAC6
  pIC50: 7.21

## COC(=O)c1ccc(-c2nnnn2Cc2ccc(C(=O)NO)cc2)nc1 [comp. 157, methyl 6-[1-[[4-(hydroxycarbamoyl)phenyl]methyl]tetrazol-5-yl]pyridine-3-carboxylate]
[1]
  pIC50: 6.04
[2]
  pIC50: 6.03
Recombinant human HDAC6
  pIC50: 7.57

## Cn1c(Cc2cccc3cccnc23)nnc1Sc1c(F)cc(C(=O)NO)cc1F [comp. 164, 3,5-difluoro-4-[[4-methyl-5-(8-quinolylmethyl)-1,2,4-triazol-3-yl]sulfanyl]benzenecarbohydroxamic acid]
[1]
  pIC50: 5.85
[2]
  pIC50: 6.18
Recombinant human HDAC6
  pIC50: 7.35

## Cn1c(Sc2c(F)cc(C(=O)NO)cc2F)nnc1-c1c(F)cccc1F [comp. 165, 4-[[5-(2,6-difluorophenyl)-4-methyl-1,2,4-triazol-3-yl]sulfanyl]-3,5-difluoro-benzenecarbohydroxamic acid]
[1]
  pIC50: 4.26
[2]
  pIC50: < 5.00
Recombinant human HDAC6
  pIC50: 8.10

## CN1CCN(c2cccc(-c3nnc(Sc4c(F)cc(C(=O)NO)cc4F)n3C)c2)CC1 [comp. 166, 3,5-difluoro-4-[[4-methyl-5-[3-(4-methylpiperazin-1-yl)phenyl]-1,2,4-triazol-3-yl]sulfanyl]benzenecarbohydroxamic acid]
[1]
  pIC50: 4.21
[2]
  pIC50: < 5.00
Recombinant human HDAC6
  pIC50: 8.05

## Nc1ccc(-c2nnnn2Cc2c(F)cc(C(=O)NO)cc2F)cc1 [comp. 172, 4-[[5-(4-aminophenyl)tetrazol-1-yl]methyl]-3,5-difluoro-benzenecarbohydroxamic acid]
[1]
  pIC50: 4.21
[2]
  pIC50: < 5.00
Recombinant human HDAC6
  pIC50: 8.10

## NCc1ccc(-c2nnn(Cc3ccc(C(=O)NO)cc3)n2)cc1 [comp. 173, 4-[[5-[4-(aminomethyl)phenyl]tetrazol-2-yl]methyl]benzenecarbohydroxamic acid]
[1]
  pIC50: 5.72
[2]
  pIC50: 6.02
Recombinant human HDAC6
  pIC50: 8.70

## NCc1ccc(-c2nnn(Cc3c(F)cc(C(=O)NO)cc3F)n2)cc1 [comp. 175, 4-[[5-[4-(aminomethyl)phenyl]tetrazol-2-yl]methyl]-3,5-difluoro-benzenecarbohydroxamic acid]
[1]
  pIC50: 5.00
[2]
  pIC50: 5.90
Recombinant human HDAC6
  pIC50: 8.40

## NCc1ccc(-c2nnnn2Cc2c(F)cc(C(=O)NO)cc2F)cc1 [comp. 176, 4-[[5-[4-(aminomethyl)phenyl]tetrazol-1-yl]methyl]-3,5-difluoro-benzenecarbohydroxamic acid]
[1]
  pIC50: 4.30
[2]
  pIC50: 5.28
Recombinant human HDAC6
  pIC50: 7.26

## Cn1c(Sc2c(F)cc(C(=O)NO)cc2F)nnc1C1(c2ccccn2)CC1 [comp. 177, 3,5-difluoro-4-[[4-methyl-5-[1-(2-pyridyl)cyclopropyl]-1,2,4-triazol-3-yl]sulfanyl]benzenecarbohydroxamic acid]
[1]
  pIC50: 4.30
[2]
  pIC50: < 5.00
Recombinant human HDAC6
  pIC50: 7.68

## Cn1c(Sc2c(F)cc(C(=O)NO)cc2F)nnc1C1(c2cccnc2)CC1 [comp. 178, 3,5-difluoro-4-[[4-methyl-5-[1-(3-pyridyl)cyclopropyl]-1,2,4-triazol-3-yl]sulfanyl]benzenecarbohydroxamic acid]
[1]
  pIC50: 4.30
[2]
  pIC50: < 5.00
Recombinant human HDAC6
  pIC50: 7.64
